Drawing on patent US10174016B2 (BAYER AKTIENGESELLSCHAFT, priority 2014, dated 2019), this text covers IC50 for 26 molecules.

Where two headings read alike, the source gives them in different places.

One test addresses human P2X3 receptor (Homo sapiens (Human), UniProt P56373). The test is described as follows: Intracellular calcium measurement (FLIPR, Fluo-4) of antagonist activity at human P2X3 receptors. It is filed as cell-based. Particulars: read-out: hP2X3 IC50. In a few lines:
(§1)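 Antagonism quantified from peak calcium fluorescence (Fluo-4, FLIPR, 90 sec read) evoked by EC80 α,β-Me-ATP, after a 30 min, 37° C. compound pretreatment in 1% DMSO. Human P2X3- or P2X2/3-expressing cells used; triplicate means fitted for IC50, percent maximal inhibition and Hill coefficient.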
A general note: Calcium flux is commonly read through the fluorescence of an indicator in the cells.

The target of a further test is human P2X2/3 receptor (Homo sapiens (Human), UniProt P56373+Q9UBL9). The test is described as follows: Intracellular calcium measurement (FLIPR, Fluo-4) of antagonist activity at human P2X2/3 receptors. It is filed as cell-based. The settings on record: human P2X2/3, FLIPR calcium assay, agonist α,β-Me-ATP; read-out: hP2X2/3 IC50. In a few lines:
as §1

The mark [1] stands for this setting: human P2X3, FLIPR calcium assay, agonist α,β-Me-ATP.

Sequence of human P2X3 receptor (P56373 whole entry): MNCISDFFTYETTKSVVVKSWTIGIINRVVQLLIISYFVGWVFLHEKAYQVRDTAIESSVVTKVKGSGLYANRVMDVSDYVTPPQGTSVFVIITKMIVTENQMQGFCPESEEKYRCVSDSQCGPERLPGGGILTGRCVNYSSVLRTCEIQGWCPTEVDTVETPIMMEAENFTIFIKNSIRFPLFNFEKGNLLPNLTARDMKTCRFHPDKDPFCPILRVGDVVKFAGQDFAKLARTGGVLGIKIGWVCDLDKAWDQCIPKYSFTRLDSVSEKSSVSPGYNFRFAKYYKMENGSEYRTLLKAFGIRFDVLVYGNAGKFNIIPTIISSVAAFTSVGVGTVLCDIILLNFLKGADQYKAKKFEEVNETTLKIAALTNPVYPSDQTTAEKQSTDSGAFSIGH
Sequence of human P2X2/3 receptor (P56373 whole entry): as above
Sequence of human P2X2/3 receptor (Q9UBL9 whole entry): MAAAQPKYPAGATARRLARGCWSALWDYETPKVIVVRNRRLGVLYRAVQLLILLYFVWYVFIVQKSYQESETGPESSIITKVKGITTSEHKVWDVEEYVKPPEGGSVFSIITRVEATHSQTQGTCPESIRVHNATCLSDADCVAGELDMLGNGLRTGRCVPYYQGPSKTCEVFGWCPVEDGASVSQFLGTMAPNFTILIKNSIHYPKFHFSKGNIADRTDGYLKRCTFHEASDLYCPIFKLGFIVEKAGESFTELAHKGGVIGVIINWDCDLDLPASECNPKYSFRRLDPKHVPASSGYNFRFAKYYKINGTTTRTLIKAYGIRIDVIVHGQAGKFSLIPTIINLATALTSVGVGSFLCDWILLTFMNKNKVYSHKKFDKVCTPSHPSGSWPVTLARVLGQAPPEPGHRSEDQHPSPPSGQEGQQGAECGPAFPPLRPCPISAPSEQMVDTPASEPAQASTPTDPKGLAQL

Turning to `CCc1cnc(-c2cc(OC[C@H]3CCCO3)cc(C(=O)N[C@H](C)c3cnc(C)cn3)c2)s1` [Example 268, 3-(5-ethyl-1,3-thiazol-2-yl)-N-[(1R)-1-(5-methylpyrazin-2-yl)ethyl]-5-[(2R)-tetrahydrofuran-2-ylmethoxy]benzamide], the results for the IC50 on human P2X3 receptor and on human P2X2/3 receptor were 14 nM and 392 nM, respectively.

For `Cc1cnc(-c2cc(OCC3CCOCC3)cc(C(=O)NC(C)c3ncc(F)cc3Cl)c2)s1` (stereo not shown) [Example 96, N-[1-(3-Chloro-5-fluoropyridin-2-yl)ethyl]-3-(5-methyl-1,3-thiazol-2-yl)-5-(tetrahydro-2H-pyran-4-ylmethoxy)benzamide], the IC50 stood at 18 nM on human P2X3 receptor (setting [1]) and 1080 nM at human P2X2/3 receptor.

With `CCc1cnc(-c2cc(OCC3(F)CN(C)C3)cc(C(=O)N[C@H](C)c3ccc(C(F)(F)F)nc3)c2)s1` [Example 387, 3-(5-ethyl-1,3-thiazol-2-yl)-5-[(3-fluoro-1-methylazetidin-3-yl)methoxy]-N-{(1R)-1-[6-(trifluoromethyl)pyridin-3-yl]ethyl}benzamide], the IC50 came out at 19 nM at human P2X3 receptor (setting [1]) and 461 nM at human P2X2/3 receptor.

Regarding `Cc1ccc([C@@H](C)NC(=O)c2cc(Oc3nccs3)cc(-c3ncc(C)s3)c2)nn1` [Example 113, N-[(1R)-1-(6-Methylpyridazin-3-yl)ethyl]-3-(5-methyl-1,3-thiazol-2-yl)-5-(1,3-thiazol-2-yloxy)benzamide], the values for the IC50 at human P2X3 receptor (setting [1]) and at human P2X2/3 receptor were 43 nM and 387 nM, respectively.

As for `CCc1cnc(-c2cc(OC[C@H]3CCOC3)cc(C(=O)N[C@H](C)c3cnc(C)cn3)c2)s1` [Example 277, 3-(5-ethyl-1,3-thiazol-2-yl)-N-[(1R)-1-(5-methylpyrazin-2-yl)ethyl]-5-[(3S)-tetrahydrofuran-3-ylmethoxy]benzamide], the IC50 at human P2X3 receptor (setting [1]) was determined as 6 nM; on human P2X2/3 receptor, 96 nM.

Take `CCc1cnc(-c2cc(OCC3CCOCC3)cc(C(=O)N[C@H](C)c3cnc(C)nc3)c2)s1` [Example 125, 3-(5-Ethyl-1,3-thiazol-2-yl)-N-[(1R)-1-(2-methylpyrimidin-5-yl)ethyl]-5-(tetrahydro-2H-pyran-4-ylmethoxy)benzamide]: the IC50 at human P2X3 receptor (setting [1]) came to 3 nM; at human P2X2/3 receptor, 27 nM.

In the case of `CCc1cnc(-c2cc(OC3COC3)cc(C(=O)N[C@H](C)c3cnc(C(F)(F)F)nc3)c2)s1` [Example 169, 3-(5-ethyl-1,3-thiazol-2-yl)-5-(oxetan-3-yloxy)-N-{(1R)-1-[2-(trifluoromethyl)pyrimidin-5-yl]ethyl}benzamide], the IC50 at human P2X3 receptor (setting [1]) stood at 9 nM; on human P2X2/3 receptor it was 70 nM.

`Cc1cnc(-c2cc(O[C@H]3CCN(C(C)C)C3)cc(C(=O)N[C@H](C)c3cnc(C(F)(F)F)nc3)c2)s1` [Example 225, 3-(5-methyl-1,3-thiazol-2-yl)-5-{[(3S)-1-(propan-2-yl)pyrrolidin-3-yl]oxy}-N-{(1R)-1-[2-(trifluoromethyl)pyrimidin-5-yl]ethyl}benzamide]: the IC50 at human P2X3 receptor (setting [1]) was 16 nM; on human P2X2/3 receptor, 1140 nM.

On to `C[C@@H](NC(=O)c1cc(OC[C@@H]2CCCO2)cc(-c2ncc(C3CCC3)s2)c1)c1ccc(C(F)(F)F)nn1` [Example 300, 3-(5-cyclobutyl-1,3-thiazol-2-yl)-5-[(2S)-tetrahydrofuran-2-ylmethoxy]-N-{(1R)-1-[6-(trifluoromethyl)pyridazin-3-yl]ethyl}benzamide], for which the IC50 was determined as 78 nM at human P2X3 receptor (setting [1]) and 820 nM at human P2X2/3 receptor.

As for `C[C@@H](NC(=O)c1cc(OC2CCOCC2)cc(-c2ncc(Cl)s2)c1)c1ccc(C(F)(F)F)nn1` [Example 326, 3-(5-chloro-1,3-thiazol-2-yl)-5-(tetrahydro-2H-pyran-4-yloxy)-N-{(1R)-1-[6-(trifluoromethyl)pyridazin-3-yl]ethyl}benzamide], the IC50 is 21 nM on human P2X3 receptor (setting [1]) and 378 nM on human P2X2/3 receptor.

Regarding `COC(=O)N1CC2COCC(C1)C2Oc1cc(C(=O)N[C@H](C)c2cnc(C(F)(F)F)nc2)cc(-c2ncc(C)s2)c1` (stereo partly drawn) [Example 345, methyl 9-[3-(5-methyl-1,3-thiazol-2-yl)-5-({(1R)-1-[2-(trifluoromethyl)pyrimidin-5-yl]ethyl}carbamoyl)phenoxy]-3-oxa-7-azabicycle[3.3.1]nonane-7-carboxylate], the IC50 is 7 nM on human P2X3 receptor (setting [1]) and 99 nM on human P2X2/3 receptor.

Consider `Cc1cnc(-c2cc(OC3COC3)cc(C(=O)N[C@H](C)c3cnc(C(F)F)nc3)c2)s1` [Example 152, N-{(1R)-1-[2-(difluoromethyl)pyrimidin-5-yl]ethyl}-3-(5-methyl-1,3-thiazol-2-yl)-5-(oxetan-3-yloxy)benzamide], for which the figures for the IC50 on human P2X3 receptor (setting [1]) and on human P2X2/3 receptor were 45 nM and 523 nM, respectively.

Regarding `Cc1cnc(-c2cc(OC[C@@H]3CN(C)CCO3)cc(C(=O)N[C@H](C)c3ccc(C(F)(F)F)nc3)c2)s1` [Example 370, 3-{[(2S)-4-methylmorpholin 2-yl]methoxy}-5-(5-methyl-1,3-thiazol-2-yl)-N-{(1R)-1-[6-(trifluoromethyl)pyridin-3-yl]ethyl}benzamide], the IC50 came to 41 nM at human P2X3 receptor (setting [1]) and 1010 nM at human P2X2/3 receptor.

Take `Cc1cnc(-c2cc(OC[C@@H]3COCCN3C)cc(C(=O)N[C@H](C)c3cnc(C(F)(F)F)nc3)c2)s1` [Example 362]: the IC50 stood at 8 nM on human P2X3 receptor (setting [1]) and 1010 nM at human P2X2/3 receptor.

`Cc1cnc(-c2cc(OC[C@H]3CCCN3C)cc(C(=O)N[C@H](C)c3cnc(C(F)(F)F)nc3)c2)s1` [Example 379, 3-{[(2R)-1-methylpyrrolidin-2-yl]methoxy}-5 (5-methyl-1,3-thiazol-2-yl)-N-{(1R)-1-[2-(trifluoromethyl)pyrimidin-5-yl]ethyl}benzamide]: the values for the IC50 at human P2X3 receptor (setting [1]) and at human P2X2/3 receptor were 42 nM and 2750 nM, respectively.

In the case of `Cc1ncc([C@@H](C)NC(=O)c2cc(OC3CCN(CC(F)F)CC3)cc(-c3ncc(C)s3)c2)cn1` [Example 309, 3-{[1-(2,2-difluoroethyl)piperidin-4-yl]oxy}-N-[(1R)-1-(2-methylpyrimidin-5-yl)ethyl]-5-(5-methyl-1,3-thiazol-2-yl)benzamide], the IC50 at human P2X3 receptor (setting [1]) worked out at 8 nM; on human P2X2/3 receptor, 70 nM.

As to `Cc1ccc(CNC(=O)c2cc(OCC3CCOCC3)cc(-c3ncc(C4CCC4)s3)c2)nn1` [Example 119, 3-(5-Cyclobutyl-1,3-thiazol-2-yl)-N-[(6-methylpyridazin-3-yl)methyl]-5-(tetrahydro-2H-pyran-4-ylmethoxy)benzamide], the results for the IC50 on human P2X3 receptor (setting [1]) and on human P2X2/3 receptor were 24 nM and 190 nM, respectively.

As for `Cc1cnc(-c2cc(OC[C@@H]3CN(C)CCO3)cc(C(=O)N[C@H](C)c3cnc(C(F)(F)F)nc3)c2)s1` [Example 351, 3-{[(2S)-4-methylmorpholin-2-yl]methoxy}-5-(5-methyl-1,3-thiazol-2-yl)-N-{(1R)-1-[2-(trifluoromethyl)pyrimidin-5-yl]ethyl}benzamide], the IC50 at human P2X3 receptor (setting [1]) was 16 nM; on human P2X2/3 receptor, 690 nM.

Regarding `Cc1ccc(CNC(=O)c2cc(OC3CCN(CC(F)F)CC3)cc(-c3ncc(C)s3)c2)nn1` [Example 307, 3-{[1-(2,2-difluoroethyl)piperidin-4-yl]oxy}-N-[(6-methylpyridazin-3-yl)methyl]-5-(5-methyl-1,3-thiazol-2-yl)benzamide], the IC50 came out at 16 nM on human P2X3 receptor and 103 nM at human P2X2/3 receptor.

Turning to `CC(C)c1cnc(-c2cc(OC[C@@H]3CCCO3)cc(C(=O)N[C@H](C)c3cnc(C(F)(F)F)nc3)c2)s1` [Example 290, 3-[5-(propan-2-yl)-1,3-thiazol-2-yl]-5-[(2S)-tetrahydrofuran-2-ylmethoxy]-N-{(1R)-1-[2-(trifluoromethyl)pyrimidin-5-yl]ethyl}benzamide], the values for the IC50 on human P2X3 receptor and at human P2X2/3 receptor were 31 nM and 368 nM, respectively.

`Cc1ccc(CNC(=O)c2cc(OCC3CC3)cc(-c3ncc(C)s3)c2)nn1` [Example 2, 3-(Cyclopropylmethoxy)-N-[(6-methylpyridazin-3-yl)methyl]-5-(5-methyl-1,3-thiazol-2-yl)benzamide]: the IC50 on human P2X3 receptor (setting [1]) was 19 nM; at human P2X2/3 receptor, 251 nM.

For the molecule `COC(=O)N1CCC(Oc2cc(C(=O)N[C@H](C)c3cnc(C(F)(F)F)nc3)cc(-c3ncc(C)s3)c2)CC1` [Example 226, Methyl 4-[3-(5-methyl-1,3-thiazol-2-yl)-5-({(1R)-1-[2-(trifluoromethyl)pyrimidin-5-yl]ethyl}carbamoyl)phenoxy]piperidine-1-carboxylate], the IC50 turned out to be 6 nM at human P2X3 receptor (setting [1]) and 59 nM at human P2X2/3 receptor.

Turning to `CCOC(=O)N1CCC(Oc2cc(C(=O)N[C@H](C)c3cnc(C(F)(F)F)nc3)cc(-c3ncc(C)s3)c2)CC1` [Example 227, Ethyl 4-[3-(5-methyl-1,3-thiazol-2-yl)-5-({(1R)-1-[2-(trifluoromethyl)pyrimidin-5-yl]ethyl}carbamoyl)phenoxy]piperidine-1-carboxylate], the IC50 at human P2X3 receptor (setting [1]) is 13 nM; at human P2X2/3 receptor it was 161 nM.

For `Cc1ccc([C@@H](C)NC(=O)c2cc(OC[C@H]3CCOC3)cc(-c3ncc(C(C)C)s3)c2)nn1` [Example 279, N-[(1R)-1-(6-methylpyridazin-3-yl)ethyl]-3-[5-(propan-2-yl)-1,3-thiazol-2-yl]-5-[(3S)-tetrahydrofuran-3-ylmethoxy]benzamide], the IC50 amounted to 115 nM at human P2X3 receptor (setting [1]) and 956 nM on human P2X2/3 receptor.

For the molecule `Cc1cnc(-c2cc(OC3COC3)cc(C(=O)N[C@H](C)c3ccc(C(F)(F)F)nc3)c2)s1` [Example 148, 3-(5-methyl-1,3-thiazol-2-yl)-5-(oxetan-3-yloxy)-N-{(1R)-1-[6-(trifluoromethyl)pyridin-3-yl]ethyl}benzamide], the IC50 worked out at 33 nM on human P2X3 receptor (setting [1]) and 794 nM at human P2X2/3 receptor.

With `Cc1cnc(-c2cc(OCC3CNCCC3(F)F)cc(C(=O)N[C@H](C)c3cnc(C(F)(F)F)nc3)c2)s1` (stereo partly drawn) [Example 359, 3-{[4,4-difluoropiperidin-3-yl]methoxy}-5-(5-methyl-1,3-thiazol-2-yl)-N-{(1R)-1-[2-(trifluoromethyl)pyrimidin-5-yl]ethyl}benzamide], the IC50 on human P2X3 receptor (setting [1]) turned out to be 6 nM; at human P2X2/3 receptor, 200 nM.
